# According to paper PMC12137728, “The hydroxamate based HDAC inhibitor WMJ-J-09 induces colorectal cancer cell death by targeting tubulin and downregulating survivin” (Scientific Reports, 2025):
# Test system: tubulin in HCT116 cells
# Assay: Microtubule assembly / polymerized tubulin (immunofluorescence, western blot)
# Format: cell-based, human
# Details: HCT116 cell lysate
# Description: Following the indicated treatments, a lysis buffer containing NP-40 (0.5%), Tris (10 mM) (pH 7.0), PMSF (2 mM), NaCl (140 mM), leupeptin (0.2 mM), and pepstatin A (0.05 mM) was utilized to lyse cells to extract proteins. SDS-PAGE was utilized to separate protein samples in equal quantities, then transferred to a nitrocellulose membrane (Pall Corporation, Washington, NY, U.S.A.). Following transfer and 1-h blocking by incubation with TBST buffer containing 5% non-fat, the proteins immobilized on the membranes undergo primary antibody hybridization. Secondary antibodies conjugated with horseradish peroxidase were used to detect target proteins. Immunoreactivity was detected using the Western chemiluminescent HRP substrate kit, as per the manufacturer’s recommendations. We used a densitometer integrated into a scientific imaging system (Biospectrum AC System, UVP) to obtain quantitative data. We examined tubulin assembly as previously described [8]. […] Subsequently, the cells were washed with PBS twice and fixed with 4% paraformaldehyde at room temperature for 15 min. Cells were permeabilized by incubation with PBS containing Triton X-100 (0.1%) for 30 min. […] The distribution of tubulin was analyzed using a confocal microscope (Zeiss, LSM 410). Green fluorescence represented β-tubulin, while blue fluorescence (derived from DAPI) corresponds to nuclei.
compound,measurement,value
"CC(=O)O[C@H]1C(=O)[C@@]2(C)[C@H]([C@H](OC(=O)c3ccccc3)[C@]3(O)C[C@H](OC(=O)[C@H](O)[C@@H](NC(=O)c4ccccc4)c4ccccc4)C(C)=C1C3(C)C)[C@]1(OC(C)=O)CO[C@@H]1C[C@@H]2O [Paclitaxel, paclitaxel]",polymerized tubulin fraction,increased the polymeric tubulin
